pEC50: −log10 of the molar value. Where two headings read alike, the source gives them in different places.
Tested on: SARS-CoV-2-NLuc in A549-hACE2 cells
Assay: microbe, parasite or virus in culture
Assay type: cell-based, SARS Coronavirus 2
Details: for pEC50: read-out: MPro EC50; for EC50: read-out: MPro EC50 (nM)
[1] = Severe acute respiratory syndrome coronavirus, 48 h

## COc1cc(-c2cc3c(o2)c(=O)n(-c2cncc4ccccc24)c(=O)n3CCC#N)c(Cl)cc1F (single isomer, unassigned) [Example 59, 3-[6-(2-chloro-4-fluoro-5-methoxy-phenyl)-3-(4-isoquinolyl)-2,4-dioxo-furo[3,2-d]pyrimidin-1-yl]propanenitrile]
  pEC50: 8.33

## COc1cc(-c2cc3c(o2)c(=O)n(-c2cncc4ccccc24)c(=O)n3CCC#N)c(Cl)cc1F (single isomer, unassigned) [Example 60, 3-[6-(2-chloro-4-fluoro-5-methoxy-phenyl)-3-(4-isoquinolyl)-2,4-dioxo-furo[3,2-d]pyrimidin-1-yl]propanenitrile]
  pEC50: 7.08

## Cn1ncc2cncc(-n3c(=O)c4oc(-c5ccccc5Cl)cc4n(CCC#N)c3=O)c21 (single isomer, unassigned) [Example 61, 3-[6-(2-chlorophenyl)-3-(1-methylpyrazolo[4,3-c]pyridin-7-yl)-2,4-dioxo-furo[3,2-d]pyrimidin-1-yl]propanenitrile]
  pEC50: 8.15

## Cn1ncc2cncc(-n3c(=O)c4oc(-c5ccccc5Cl)cc4n(CCC#N)c3=O)c21 (single isomer, unassigned) [Example 62, 3-[6-(2-chlorophenyl)-3-(1-methylpyrazolo[4,3-c]pyridin-7-yl)-2,4-dioxo-furo[3,2-d]pyrimidin-1-yl]propanenitrile]
  pEC50: 6.63

## COc1cc(-c2cc3c(o2)c(=O)n(-c2cncc4cnn(C)c24)c(=O)n3CCC#N)c(Cl)cc1F (single isomer, unassigned) [Example 63, 3-[6-(2-chloro-4-fluoro-5-methoxy-phenyl)-3-(1-methylpyrazolo[4,3-c]pyridin-7-yl)-2,4-dioxo-furo[3,2-d]pyrimidin-1-yl]propanenitrile]
  pEC50: 8.20

## COc1cc(-c2cc3c(o2)c(=O)n(-c2cncc4cnn(C)c24)c(=O)n3CCC#N)c(Cl)cc1F (single isomer, unassigned) [Example 64, 3-[6-(2-chloro-4-fluoro-5-methoxy-phenyl)-3-(1-methylpyrazolo[4,3-c]pyridin-7-yl)-2,4-dioxo-furo[3,2-d]pyrimidin-1-yl]propanenitrile]
  pEC50: 6.95

## COc1cc(-c2cc3c(o2)c(=O)n(-c2cncc4cccnc24)c(=O)n3CCC#N)c(Cl)cc1F (single isomer, unassigned) [Example 65, 3-(6-(2-chloro-4-fluoro-5-methoxyphenyl)-3-(1,6-naphthyridin-8-yl)-2,4-dioxo-3,4-dihydrofuro[3,2-d]pyrimidin-1(2H)-yl)propanenitrile]
  pEC50: 8.24

## COc1cc(-c2cc3c(o2)c(=O)n(-c2cncc4cccnc24)c(=O)n3CCC#N)c(Cl)cc1F (single isomer, unassigned) [Example 66, 3-(6-(2-chloro-4-fluoro-5-methoxyphenyl)-3-(1,6-naphthyridin-8-yl)-2,4-dioxo-3,4-dihydrofuro[3,2-d]pyrimidin-1(2H)-yl)propanenitrile]
  pEC50: 6.95

## COc1ccc(Cl)c(-c2cc3[nH]c(=O)n(-c4cncc5ccccc45)c(=O)c3o2)c1 [Example 3]
[1]
  EC50: 23.3 nM

## O=c1[nH]c2cc(-c3ccccc3Cl)oc2c(=O)n1-c1cncc2ccccc12 [Example 4, 6-(2-chlorophenyl)-3-(4-isoquinolyl)-1H-furo[3,2-d]pyrimidine-2,4-dione]
[1]
  pEC50: 6.56

## O=c1[nH]c2cc(-c3ccccc3Cl)oc2c(=O)n1-c1cncc2c1CCCC2 [Example 5]
[1]
  EC50: 212 nM

## Cn1ncc2cncc(-n3c(=O)[nH]c4cc(-c5ccccc5Cl)oc4c3=O)c21 [Example 6]
[1]
  EC50: 174 nM

## O=c1[nH]c2cc(-c3ccccc3Cl)oc2c(=O)n1-c1cncc2ccc(F)cc12 [Example 7]
[1]
  EC50: 79.6 nM

## Cc1cncc(-n2c(=O)[nH]c3cc(-c4ccccc4Cl)oc3c2=O)c1 [Example 8]
[1]
  EC50: 137 nM

## Cn1ncc2cncc(-n3c(=O)[nH]c4cc(-c5ccc(F)cc5Cl)oc4c3=O)c21 [Example 9]
[1]
  pEC50: 6.00

## COc1ccc2cncc(-n3c(=O)[nH]c4cc(-c5ccccc5Cl)oc4c3=O)c2c1 [Example 10]
[1]
  EC50: 95.6 nM

Reference: patent US20250296936A1, “SARS-COV2 MAIN PROTEASE INHIBITORS” (Gilead Sciences, Inc., priority 2024, published 2025)
